Assay results published in patent publication US11413321B2, “Pharmaceutical composition for use in increasing hair, modifying scalp or skin, healing a wound, promoting osteogenesis, or modifying hair” (priority 2017, dated 2022).

How the values were obtained:
Format in all cases: in vivo, Wistar rat
[1] = test system: full-thickness skin defect; test: Wound healing score, circular full-thickness skin defect on the dorsal part
Experimental: Formation of wounds: hair on the dorsal part of a 12-week-old Wistar rat was shaven with hair clippers, and a circular full-thickness skin defect with a diameter of 8 mm was produced on each of the left and right sides of the head and the left and right sides of the tail. The full-thickness skin defect was formed at four locations per body.
Administration of milk: 20 μL of milk was subcutaneously injected at each of four locations, namely upper, lower, left and right, in a place 4 mm away from the peripheral edge of the wound. As the milk, the commercially available bovine milk sterilized by heating (at 130 degrees for 2 seconds and 65 degrees for 30 minutes) as described in Example 1 was used.
Administration of fatty acid: As a fatty acid contained in the milk, sterile purified water (administration liquid) containing palmitic acid, stearic acid, myristic acid, linolenic acid, α-linoleic acid and oleic acid, respectively was administered. Here, the water was heated and administered for the saturated fatty acids, and the water was administered at room temperature for the unsaturated fatty acids. 20 μL of the administration liquid (containing 1 mg of the fatty acid) was subcutaneously administered at each of four locations, namely upper, lower, left and right, in a place 4 mm away from the peripheral edge of the wound.
Score 4: The reduction ratio of the area of the wound site is 70% or more.
Score 3: The reduction ratio of the area of the wound site is 50% or more and less than 70%.
Score 2: The reduction ratio of the area of the wound site is 20% or more and less than 50%.
Score 1: The reduction ratio of the area of the wound site is less than 20%.
The result was given as a ratio obtained by dividing the above score by the score for physiological saline.
Two tubes of 8 mL of commercially available milk sterilized at a low temperature (65 degrees for 30 minutes) were centrifuged by a centrifugal separator (2600 g×6 minutes), 2 mL of one fourth of the supernatant exclusive of a whip portion was collected from each tube, the two collected liquids were combined to obtain 4 mL of a liquid, and 4 mL of the resulting liquid was stirred, and used for experiments (hereinafter, the obtained sample is referred to as a “centrifuged sample”). The obtained centrifuged sample was administered to the wound site at a dosage of 20 μL per location in the same manner as described above. The results are shown in “Centrifuged Sample” in FIG. 6A.
Next, a wound healing-promoting effect of lactoferrin was examined. As lactoferrin, Nice rim essence 62971 (trade name) purchased from Lion Corporation was used and administered at one location in an amount of 20 μg or 60 μg in the same manner as described above. Specifically, the lactoferrin was ground, and then thoroughly dissolved in purified water. The lactoferrin concentration was adjusted so that an injection amount of 20 μL included the above administration amount. The result was given as a value obtained by dividing each of scores after seven days and after ten days by the score for the physiological saline administration group.

CD68-positive cells [2] = test: Immunohistological staining of rat dorsal skin after forced oral lactoferrin (CD68); conditions: 300 mg oral once a day, eight weeks after administration, n=3; FIG. 9
Experimental: (§1) As a comparative test, lactoferrin was administered instead of milk, and whether the number of CD68-positive cells and the number of PPAR-γ-positive cells increased or not was examined. As lactoferrin, three tablets of Nice rim essence 62971 (manufactured by Lion Corporation) corresponding to 300 mg of active lactoferrin (amount ingested per day by a human) were orally administered to a 12-week-old Wistar rat (n=3). Administration was performed once a day with the tablets injected (forcedly ingested) into the stomach using a feeding needle. Eight weeks after administration, a paraffin-embedded section of the dorsal skin was prepared by a conventional method, and subjected to immunohistological staining.

PPAR-γ-positive cells [3] = test: Immunohistological staining of rat dorsal skin after forced oral lactoferrin (PPAR-γ); conditions: 300 mg oral once a day, eight weeks after administration, n=3; FIG. 9
Experimental: as §1

CD68-positive cells [4] = test: Immunohistological staining of rat dorsal skin after injection of fatty acids (CD68); conditions: 1 mg fatty acid in 20 μL per location; for number of CD68-positive cells (overall statement): a weak effect was observed overall
Experimental: (§2) Next, representative fatty acids contained in milk were administered to a 12-week-old Wistar rat at a plurality of locations on the dorsal skin as in Example 1(2) above, and a change in tissues by the administration was observed after the tissues were subjected to immunohistological staining. More specifically, physiological saline was administered in an amount of 20 μL per location, an administration liquid containing 1 mg of a fatty acid was administered in an amount of 20 μL per location, and a change in CD68-positive macrophage stained images and PPAR-γ-positive cell images by the administration was observed. Samples of the Wistar rat were obtained by sampling administration sites (four weeks after administration and eight weeks after administration). FIGS. 10A to 10G show the results. […] At saturated fatty acid injection sites, infiltration of a large number of CD68-positive cells was observed, and fibrillization of normal tissues was observed. Therefore, in FIGS. 10B to 10D, a change in fat tissues was examined at a location which was closest to the administration site and where normal tissues were maintained (non-fibrillization location).

PPAR-γ-positive cells [5] = test: Immunohistological staining of rat dorsal skin after injection of fatty acids (PPAR-γ); conditions: 1 mg fatty acid in 20 μL per location; for number of PPAR-γ-positive cells at the administration site: four weeks after administration, vs physiological saline, FIGS. 10B-10G; for increase in the number of PPAR-γ-positive cells at the administration site: eight weeks after administration
Experimental: as §2

[6] = 20 μL administration liquid containing 1 mg of the fatty acid at each of four locations, FIG. 6C
[7] = eight weeks after administration
[8] = four weeks after administration, vs physiological saline

Molecule | wound healing-promoting effect (score divided by the score for physiological saline) ([1]; 20 μg or 60 μg per location in 20 μL, after seven days and after ten days, FIG. 6B) | number of CD68-positive cells in dorsal skin (CD68-positive cells [2]) | number of PPAR-γ-positive cells in dorsal skin (PPAR-γ-positive cells [3]) | wound healing-promoting effect (score divided by the score for physiological saline) [1, 6] | number of CD68-positive cells (overall statement) (CD68-positive cells [4]) | number of CD68-positive cells at the administration site (CD68-positive cells [4]; [7]) | number of CD68-positive cells at the administration site (CD68-positive cells [4]; [8]) | number of PPAR-γ-positive cells at the administration site (PPAR-γ-positive cells [5]) | increase in the number of PPAR-γ-positive cells at the administration site (PPAR-γ-positive cells [5])
lactoferrin | did not exhibit a significant promoting effect | did not increase | did not increase | – | – | – | – | – | –
CCCCC/C=C\C/C=C\CCCCCCCC(=O)O [linoleic acid] | – | – | – | weak wound healing-promoting effect | did not greatly increase | increased | did not remarkably increase | did not remarkably increase | –
CC/C=C\C/C=C\C/C=C\CCCCCCCC(=O)O [α-linolenic acid] | – | – | – | weak wound healing-promoting effect | did not greatly increase | increased | did not remarkably increase | did not remarkably increase | –
CCCCCCCC/C=C\CCCCCCCC(=O)O [oleic acid] | – | – | – | weak wound healing-promoting effect | did not greatly increase | increased | did not remarkably increase | did not remarkably increase | –
CCCCCCCCCCCCCC(=O)O [myristic acid] | – | – | – | high promoting effect | – | maintained | increased | increased | maintained
CCCCCCCCCCCCCCCCCC(=O)O [stearic acid] | – | – | – | high promoting effect | – | maintained | increased | increased | maintained
